# According to ChEMBL document CHEMBL1152837, “Ligand binding to nucleic acids and proteins: Does selectivity increase with strength?” (Eur J Med Chem, 2008):
# Tests used:
# Nucleic Acid [1] = assay: Binding affinity to poly(dA).poly(dT) duplex DNA assessed as ratio of KA to KB by ESI-MS analysis; format: nucleic-acid assay
# Nucleic Acid [2] = assay: Binding affinity to poly(dA).poly(dT) DNA assessed as change in melting temperature; format: nucleic-acid assay
# Nucleic Acid [3] = assay: Binding affinity to poly(A).poly(U) RNA assessed as change in melting temperature; format: nucleic-acid assay
# [4] = molecular target: Kappa-type opioid receptor (Rattus norvegicus, UniProt P34975); assay: Binding affinity to kappa opioid receptor in rat brain membrane; format: cell membranes
# Chain of Kappa-type opioid receptor (P34975 whole entry): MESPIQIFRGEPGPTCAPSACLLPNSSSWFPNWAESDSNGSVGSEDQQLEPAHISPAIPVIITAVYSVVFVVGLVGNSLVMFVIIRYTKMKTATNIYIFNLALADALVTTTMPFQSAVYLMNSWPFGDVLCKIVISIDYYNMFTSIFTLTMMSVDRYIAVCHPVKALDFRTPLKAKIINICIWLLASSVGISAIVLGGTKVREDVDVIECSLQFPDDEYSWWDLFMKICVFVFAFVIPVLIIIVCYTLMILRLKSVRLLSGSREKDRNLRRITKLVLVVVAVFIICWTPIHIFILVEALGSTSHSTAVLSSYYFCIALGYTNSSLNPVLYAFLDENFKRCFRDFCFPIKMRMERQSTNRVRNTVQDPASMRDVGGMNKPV
# [5] = molecular target: Delta-type opioid receptor (Rattus norvegicus, UniProt P33533); assay: Binding affinity to delta opioid receptor in rat brain membrane; format: cell membranes
# Chain of Delta-type opioid receptor (P33533 whole entry): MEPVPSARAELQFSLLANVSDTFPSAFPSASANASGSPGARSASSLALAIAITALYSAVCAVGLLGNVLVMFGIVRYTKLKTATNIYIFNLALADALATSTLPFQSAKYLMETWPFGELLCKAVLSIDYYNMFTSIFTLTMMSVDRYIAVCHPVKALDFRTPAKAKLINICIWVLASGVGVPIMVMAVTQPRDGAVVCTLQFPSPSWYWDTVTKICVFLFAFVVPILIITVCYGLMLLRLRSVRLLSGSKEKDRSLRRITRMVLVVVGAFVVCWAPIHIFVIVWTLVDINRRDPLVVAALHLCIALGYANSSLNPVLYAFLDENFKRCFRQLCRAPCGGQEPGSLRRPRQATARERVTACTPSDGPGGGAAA
compound,measurement,setting,value
Cn1cc(NC(=O)c2cc(NC(=O)c3cc(NC=O)cn3C)cn2C)cc1C(=O)NCCC(=N)N,Ratio,Nucleic Acid [1],4.4
CN1CCN(c2ccc3[nH]c(-c4ccc5[nH]c(-c6ccc(O)cc6)nc5c4)nc3c2)CC1,Ratio,Nucleic Acid [1],2.4
COc1cccc2c1C(=O)c1c(O)c3c(c(O)c1C2=O)C[C@@](O)(C(=O)CO)C[C@@H]3O[C@H]1C[C@H](N)[C@H](O)[C@H](C)O1,ΔTm,Nucleic Acid [2],13 °C
N=C(N)c1ccc(/N=N/Nc2ccc(C(=N)N)cc2)cc1,Ratio,Nucleic Acid [1],0.32
O=C1c2c(O)ccc(O)c2C(=O)c2c(NCCNCCO)ccc(NCCNCCO)c21,ΔTm,Nucleic Acid [2],23 °C
COc1cc2cc3c4cc(OC)c(OC)cc4cc[n+]3c(C)c2cc1OC,ΔTm,Nucleic Acid [2],18 °C
CC[n+]1c(-c2ccccc2)c2cc(N)ccc2c2ccc(N)cc21,ΔTm,Nucleic Acid [3],17 °C
Cn1cc(NC(=O)c2cc(NC(=O)CNC(=N)N)cn2C)cc1C(=O)NCCC(=N)N,Ratio,Nucleic Acid [1],0.28
Oc1ccc2c3c1O[C@H]1c4[nH]c5ccccc5c4C[C@@]4(O)[C@@H](C2)N(CC2CC2)CC[C@]314 [NALTRINDOLE],Ki,[4],0.03 µM
CN1CC[C@]23c4c5ccc(O)c4O[C@H]2c2[nH]c4ccccc4c2C[C@@]3(O)[C@H]1C5 [OXYMORPHINDOLE],Ki,[4],2.17 µM
same,Ki,[5],0.0008 µM
CCOc1ccc(-c2nc3cc(-c4nc5cc(N6CCN(C)CC6)ccc5[nH]4)ccc3[nH]2)cc1,Ratio,Nucleic Acid [1],3.7
